Where two headings read alike, the source gives them in different places.
Tests used:
[1] = tested on: prostate adenocarcinoma line LNCap cells; test: CTG (CellTiter-Glo) cell viability assay, 6×6 combo matrix, 72 h, LNCaP; details: Homo sapiens, LNCaP;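 further: luminescence signal read after adding CellTiter-Glo reagent, with cells exposed to compounds for 72 h at 37 °C under 5% CO2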
[2] = tested on: pancreatic cancer line Capan-1 cells; test: CTG (CellTiter-Glo) cell viability assay, 6×6 combo matrix, 72 h, Capan-1; format: cell-based; details: Homo sapiens, CAPAN-1; read-out: Relatively Cell inhibition of vehicle control
Protocol: To measure the cell inhibition effect of compounds and synergy effect of test articles on ten (10) cell lines using standard CTG assay.
b. A549, T47D, SK-OV-3, MKN45, SK-Hep-1, HT-29, Capan-1, 786-O and LNCaP cell line, for compounds and vehicle groups, the seeding density of cell lines is 3000 cells/80 µL per well. For blank groups, add 100 µL medium. For PBS groups, add 100 µL PBS.
8) Incubate the U87MG, A549, T47D, SK-OV-3, MKN45, SK-Hep-1, HT-29, Capan-1, 786-O and LNCaP cells overnight at 37° C./5% CO2.
5) Incubate the plates at 37° C./5% CO2 for 72 hours.
6) Read plates in Envision.

[3] = tested on: prostate adenocarcinoma line LNCap cells;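 further: luminescence signal read after adding CellTiter-Glo reagent, with cells exposed to compounds for 72 h at 37 °C under 5% CO2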
[4] = tested on: breast cancer line T47D cells; test: CTG (CellTiter-Glo) cell viability assay, 6×6 combo matrix, 72 h, T47D; details: Homo sapiens;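 further: luminescence read-out after 72 h at 37 °C under 5% CO2, with medium-only wells as blanks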
Protocol: (§1) 7) Using complete cell medium, adjust the volume of the suspension to achieve a cell concentration.
(§2) Solid compound of cis-platinum was solubilized in PBS to a stock solution of 3.333 mM.
(§3) Final volume is 100 µL per well at this point.
(§4) 1) Incubate the plates at room temperature and away from light for 30 minutes.
(§5) 3) Add 100 µL /well of CellTiter-Glo® Reagent in each well. Avoid light.
(§6) 4) Mix contents for 2 minutes on an orbital shaker.
(§7) 5) Incubate plate at room temperature for 10 minutes to stabilize the luminescent signal.

[5] = tested on: kidney cancer line 786-O cells; test: CTG (CellTiter-Glo) cell viability assay, 6×6 combo matrix, 72 h, 786-O; details: Homo sapiens, 786-0, read-out: Relatively Cell inhibition of vehicle control;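 further: luminescence read-out after adding CellTiter-Glo reagent, with cells incubated at 37 °C under 5% CO2 during compound exposure, part of a ten cell line synergy study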
Protocol: as §1, §2, §3, §4, §5, §6, §7

[6] = tested on: glioblastoma line U87MG cells; test: CTG (CellTiter-Glo) cell viability assay, 6×6 combo matrix, 72 h, U87MG; details: Homo sapiens, U-87 MG;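 further: U87MG cells seeded at 2000 per well, exposed 72 h, viability read by CellTiter-Glo luminescence, inhibition expressed relative to vehicle-treated wells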
[7] = tested on: breast cancer line T47D cells;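 further: luminescence read-out after 72 h at 37 °C under 5% CO2, with medium-only wells as blanks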
Protocol: as §1, §2, §3, §4, §5, §6, §7

[8] = tested on: lung adenocarcinoma line A549 cells; test: CTG (CellTiter-Glo) cell viability assay, 6×6 combo matrix, 72 h, A549; details: Homo sapiens, A549, read-out: Relatively Cell inhibition of vehicle control(%);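 further: luminescent ATP readout with CellTiter-Glo after compound exposure, used to assess growth inhibition and combination synergy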
Protocol: as §1, §2, §3, §4, §5, §6, §7

[9] = tested on: Liver cancer line SK-HEP-1 cells; test: CTG (CellTiter-Glo) cell viability assay, 6×6 combo matrix, 72 h, SK-Hep-1; details: Homo sapiens;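 further: luminescent signal read after 72 h compound exposure at 37 °C under 5% CO2, with medium-only wells serving as blank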
Protocol: as §1, §2, §3, §4, §5, §6, §7

[10] = tested on: kidney cancer line 786-O cells;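 further: luminescence read-out after adding CellTiter-Glo reagent, with cells incubated at 37 °C under 5% CO2 during compound exposure, part of a ten cell line synergy study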
Protocol: as §1, §2, §3, §4, §5, §6, §7

[11] = tested on: ovarian cancer line SK-OV3 cells;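 further: luminescent signal read after CellTiter-Glo addition, cells exposed to compounds for 72 h at 37 °C under 5% CO2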

COc1cccc2c1C(=O)c1c(O)c3c(c(O)c1C2=O)C[C@@](O)(C(=O)CO)C[C@@H]3O[C@H]1C[C@H](N)[C@H](O)[C@H](C)O1 [doxorubicin]
inhibition at […] ([1]; read-out: Relatively Cell inhibition of vehicle control(%), doxorubicin 16 nM only (myricetin plate)): 2.69% | inhibition at 0.08 µM ([1]; read-out: Relatively Cell inhibition of vehicle control(%), doxorubicin 80 nM only (LB-1 plate)): 29.9% | inhibition at 0.08 µM ([1]; read-out: Relatively Cell inhibition of vehicle control(%), doxorubicin 80 nM only (myricetin plate)): 31.7% | inhibition at 0.4 µM ([1]; read-out: Relatively Cell inhibition of vehicle control(%), doxorubicin 400 nM only (LB-1 plate)): 65.2% | inhibition at 0.4 µM ([1]; read-out: Relatively Cell inhibition of vehicle control(%), doxorubicin 400 nM only (myricetin plate)): 67.3% | inhibition at 2 µM ([1]; read-out: Relatively Cell inhibition of vehicle control(%), doxorubicin 2000 nM only (LB-1 plate)): 97.2% | inhibition at 2 µM ([1]; read-out: Relatively Cell inhibition of vehicle control(%), doxorubicin 2000 nM only (myricetin plate)): 97% | inhibition at 10 µM ([1]; read-out: Relatively Cell inhibition of vehicle control(%), doxorubicin 10000 nM only (LB-1 plate)): 87.8% | inhibition at 10 µM ([1]; read-out: Relatively Cell inhibition of vehicle control(%), doxorubicin 10000 nM only (myricetin plate)): 88.9% | inhibition at 0.08 µM [2]: 44.8% | inhibition at 0.4 µM [2]: 68% | inhibition at 2 µM [2]: 86.9% | inhibition at 10 µM [2]: 74.9% | inhibition [3]: 7.17% | inhibition at […] ([4]; read-out: Relatively Cell inhibition of vehicle control(%), T47D, 16 nM doxorubicin only (myricetin 0)): 6.02% | inhibition at 0.08 µM ([4]; read-out: Relatively Cell inhibition of vehicle control(%), T47D, 80 nM doxorubicin only (LB-1 0)): 19.3% | inhibition at 0.08 µM ([4]; read-out: Relatively Cell inhibition of vehicle control(%), T47D, 80 nM doxorubicin only (myricetin 0)): 23% | inhibition at 0.4 µM ([4]; read-out: Relatively Cell inhibition of vehicle control(%), T47D, 400 nM doxorubicin only (LB-1 0)): 50.2% | inhibition at 0.4 µM ([4]; read-out: Relatively Cell inhibition of vehicle control(%), T47D, 400 nM doxorubicin only (myricetin 0)): 53.7% | inhibition at 2 µM ([4]; read-out: Relatively Cell inhibition of vehicle control(%), T47D, 2000 nM doxorubicin only (LB-1 0)): 51.6% | inhibition at 2 µM ([4]; read-out: Relatively Cell inhibition of vehicle control(%), T47D, 2000 nM doxorubicin only (myricetin 0)): 59% | inhibition at 10 µM ([4]; read-out: Relatively Cell inhibition of vehicle control(%), T47D, 10000 nM doxorubicin only (LB-1 0)): 45.3% | inhibition at 10 µM ([4]; read-out: Relatively Cell inhibition of vehicle control(%), T47D, 10000 nM doxorubicin only (myricetin 0)): 48.1% | inhibition at 0.08 µM [5]: 24% | inhibition at 0.4 µM [5]: 64.9% | inhibition at 2 µM [5]: 76.2% | inhibition at 10 µM [5]: 83.8% | inhibition at 0.08 µM ([6]; 72 h, read-out: Relatively Cell inhibition of vehicle control(%), U87MG, 80 nM doxorubicin only (LB-1 0), 72 h): 50% | inhibition at 0.4 µM ([6]; 72 h, read-out: Relatively Cell inhibition of vehicle control(%), U87MG, 400 nM doxorubicin only (LB-1 0), 72 h): 91.3% | inhibition at 2 µM ([6]; 72 h, read-out: Relatively Cell inhibition of vehicle control(%), U87MG, 2000 nM doxorubicin only (LB-1 0), 72 h): 72.4% | inhibition at 10 µM ([6]; 72 h, read-out: Relatively Cell inhibition of vehicle control(%), U87MG, 10000 nM doxorubicin only (LB-1 0), 72 h): 78.4% | inhibition at […] ([6]; read-out: Relatively Cell inhibition of vehicle control(%), doxorubicin 16 nM only): 27.4% | inhibition at 0.08 µM ([6]; read-out: Relatively Cell inhibition of vehicle control(%), doxorubicin 80 nM only): 52.5% | inhibition at 0.4 µM ([6]; read-out: Relatively Cell inhibition of vehicle control(%), doxorubicin 400 nM only): 93% | inhibition at 2 µM ([6]; read-out: Relatively Cell inhibition of vehicle control(%), doxorubicin 2000 nM only): 78.3% | inhibition at 10 µM ([6]; read-out: Relatively Cell inhibition of vehicle control(%), doxorubicin 10000 nM only): 80.8% | inhibition [7]: 0.17% | inhibition at 0.08 µM [8]: 42.2% | inhibition at 0.4 µM [8]: 61.4% | inhibition at 2 µM [8]: 95.8% | inhibition at 10 µM [8]: 94.3% | inhibition at […] ([9]; SK-HEP1, read-out: Relatively Cell inhibition of vehicle control, doxorubicin 16 nM only (myricetin table)): 6.89% | inhibition at 0.08 µM ([9]; SK-HEP1, read-out: Relatively Cell inhibition of vehicle control, doxorubicin 80 nM only (LB-1 table)): 31.3% | inhibition at 0.08 µM ([9]; SK-HEP1, read-out: Relatively Cell inhibition of vehicle control, doxorubicin 80 nM only (myricetin table)): 25.5% | inhibition at 0.4 µM ([9]; SK-HEP1, read-out: Relatively Cell inhibition of vehicle control, doxorubicin 400 nM only (LB-1 table)): 66.2% | inhibition at 0.4 µM ([9]; SK-HEP1, read-out: Relatively Cell inhibition of vehicle control, doxorubicin 400 nM only (myricetin table)): 68.5% | inhibition at 2 µM ([9]; SK-HEP1, read-out: Relatively Cell inhibition of vehicle control, doxorubicin 2000 nM only (LB-1 table)): 98.6% | inhibition at 2 µM ([9]; SK-HEP1, read-out: Relatively Cell inhibition of vehicle control, doxorubicin 2000 nM only (myricetin table)): 98.5% | inhibition at 10 µM ([9]; SK-HEP1, read-out: Relatively Cell inhibition of vehicle control, doxorubicin 10000 nM only (LB-1 table)): 99.4% | inhibition at 10 µM ([9]; SK-HEP1, read-out: Relatively Cell inhibition of vehicle control, doxorubicin 10000 nM only (myricetin table)): 99.4% | inhibition [10]: 3.98% | inhibition [11]: 2.75%

Source: patent US20230165831A1, “METHOD AND COMPOSITION FOR RENDERING CANCER CELLS SUSCEPTIBLE TO TREATMENT BY TARGETED ONCOGENETIC DRIVERS” (IMPACT BIOLIFE SCIENCE, INC., priority 2021, published 2023)
